Here are results for seven compounds from PMC9606729 (RSC Advances, 2022).

Where two headings read alike, the source gives them in different places.

Data set [1] concerns HeLa cells. The data set is described as follows: MTT cell viability assay (photocytotoxicity), HeLa. To be noted: for PI (Phototoxic Index) HeLa: ratio between IC50 in the dark and visible light exposure. The format is cell-based, human.
Experimental: (§1) The photocytotoxicity of the complexes was assessed using MTT assay based on the ability of mitochondrial dehydrogenases in the viable cells to cleave the tetrazolium rings of MTT and forming dark blue membrane impermeable crystals of formazan that were measured at 570 nm giving an estimate of the number of viable cells.[40] Approximately, 1 × 10^4 cells of HeLa and A549 were plated in a 96-well culture plate in DMEM supplemented with 10% fetal bovine serum and cultured overnight. Different concentrations of the complexes were added to the cells, and incubation was continued for 4 h in dark. After incubation, the medium was replaced with 50 mM phosphate buffer, pH 7.4, containing 150 mM NaCl (PBS) and photo-irradiation was done for 1 h in visible light of 400–700 nm using Luzchem Photoreactor (Model LZC-1, Ontario, Canada; light fluence rate: 2.4 mW cm^−2; light dose = 10 J cm^−2). PBS was replaced with 10% DMEM after irradiation. Incubation was continued for a further period of 19 h in dark for light exposed cells and for 20 h in dark for light unexposed cells followed by addition of 25 μL of 4 mg mL^−1 of MTT to each well and incubated for an additional 3 h. The culture medium was discarded, and a 100 μL volume of DMSO was added to dissolve the formazan crystals. The absorbance at 570 nm was determined using an ELISA microplate reader (BioRad, Hercules, CA, USA). The cytotoxicity of the test compounds was measured as the percentage ratio of the absorbance of the treated cells over the untreated controls. The IC50 values were determined by nonlinear regression analysis (Graphpad Prism, version 7).
The test system of data set [2] is A549 cells. Kind of data set: MTT cell viability assay (photocytotoxicity), A549. The format is cell-based, human. The following applies: for PI (Phototoxic Index) A549: ratio between IC50 in the dark and visible light exposure.
Experimental: as §1
Data set [3] is described as follows: Partition coefficient n-octanol/water, modified shake-flask method. The following applies: average of three concentrations. Type of data set: physicochemical. As to the method: A modified shake-flask method was used to determine the partition coefficients of the complexes 1–6 between n-octanol and water.[41] Briefly, 5 ml solution of a complex in octanol-saturated water was shaken with 5 ml of water-saturated n-octanol in a falcon tube for ∼30 min using a vortex. The biphasic mixture was centrifuged for ∼5 min at 4000 rpm and the layers were separated. The concentration of the complexes 1–6 in each layer was measured by UV-visible spectroscopy. The partition coefficients of 1–6 were determined at three different concentrations and averaged out.

For data set [4], the system named is HeLa cells. Kind of data set: Annexin-V/FITC/PI assay by flow cytometry. Type of data set: cell-based, human. To be noted: 5 μM. As to the method: The mechanism of light-assisted cell death induced by the complexes was studied by annexin-V/FITC/PI assay using complexes 1 and 3 in 1% DMSO/DMEM.[44] ∼4 × 10^5 HeLa cells seeded in six-well plates were cultured for 24 h. The cells were then incubated with 3 (5 μM) for 4 h in the dark and then exposed to visible light (λ = 400–700 nm, light dose = 10 J cm^−2) in phenol red free media for 1 h. The corresponding dark control experiment was carried out. Cells were incubated for another 19 h and 20 h respectively for the light exposed and unexposed plates in DMEM/10% fetal bovine serum (FBS) buffer in the dark. The medium was discarded, cells were trypsinized and re-suspended in 140 μL Annexin V binding buffer (100 mM HEPES/NaOH, pH 7.4 containing 140 mM NaCl and 2.5 mM CaCl2). Annexin-V/FITC ([…]) and propidium iodide (PI; […]) were added to the cell suspensions, incubated for 5 min and readings were taken using a flow cytometer.
On the technique in general: In flow cytometry, cells or beads pass a laser one at a time.

In data set [5] the target is T1, human serum albumin (HSA) (Homo sapiens, UniProt P02768).
T1 construct: purchased Sigma (U.S.A.)
T1 sequence (P02768 25-609): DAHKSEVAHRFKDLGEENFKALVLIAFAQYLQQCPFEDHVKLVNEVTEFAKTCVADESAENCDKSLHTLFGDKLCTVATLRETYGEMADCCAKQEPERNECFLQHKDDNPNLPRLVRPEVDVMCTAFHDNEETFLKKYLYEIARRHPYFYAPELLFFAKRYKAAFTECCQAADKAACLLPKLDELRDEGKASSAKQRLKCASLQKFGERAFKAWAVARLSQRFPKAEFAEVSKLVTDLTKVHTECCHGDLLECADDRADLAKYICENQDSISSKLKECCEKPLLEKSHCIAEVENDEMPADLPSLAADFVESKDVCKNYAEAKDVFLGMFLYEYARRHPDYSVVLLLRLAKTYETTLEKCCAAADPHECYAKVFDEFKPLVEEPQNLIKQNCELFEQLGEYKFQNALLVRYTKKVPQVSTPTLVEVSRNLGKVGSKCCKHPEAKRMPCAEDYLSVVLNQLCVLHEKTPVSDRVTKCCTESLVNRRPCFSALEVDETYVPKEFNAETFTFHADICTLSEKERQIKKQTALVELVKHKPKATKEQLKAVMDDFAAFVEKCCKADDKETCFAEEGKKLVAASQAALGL
The data set is described as follows: Protein binding by tryptophan fluorescence quenching. The following applies: fluorescence lifetime of HSA with 10 and 20 μM complex. On the procedure: The protein binding study was carried out by tryptophan fluorescence quenching experiments using human serum albumin (HSA, 2 μM) in Tris–HCl buffer (pH 7.2). Quenching of the emission intensity of tryptophan residue (Trp 214) of HSA at 320 nm (excitation wavelength at 280 nm) was monitored using complexes 1–6 as quenchers with increasing concentration.[38]I0/I vs. [complex] plots were constructed. Linear fit of the data using the equation I0/I = 1 + K[Q], where I0 and I are the emission intensity of HSA in the absence of quencher and emission intensity of HSA in the presence of the quencher of concentration [Q] gave the binding constant KHSA values using OriginPro 8. […] Average fluorescence lifetime of pure HSA (2 μM) was measured and compared with its fluorescence lifetime in presence of two different concentrations (10 and 20 μM) of complex 3 using a time-resolved fluorimeter.[39]

The subject of data set [6] is HeLa cells. Kind of data set: Cellular uptake by flow cytometry. Type of data set: cell-based, human. The following applies: 10 μM, 4 h in dark, fluorescence vs cells' auto fluorescence. As to the method: Uptake of the complexes 1–3 in HeLa cells were studied by flow cytometric method reported in literature.[42] HeLa cells were treated with 1–3 (10 μM) and incubated for 4 h in dark. The cells were harvested by trypsinization and a suspension in PBS was prepared. The uptake of the green fluorescent complexes in HeLa cells were evaluated by flow cytometry.

Data set [7] deals with HeLa cells. The data set is described as follows: DCFDA assay for detection of ROS. Type of data set: cell-based, human. To be noted: 5 μM. On the procedure:
The generation of cellular reactive oxygen species (ROS) was assessed using DCFDA assay.[43] Approximately ∼1 × 10^6 HeLa cells were incubated with complex 3 (5 μM) for 4 h which is followed by photo-irradiation (400–700 nm) for 1 h in PBS. The cells were then harvested by trypsinization and a single cell suspension in PBS was made. After that the cells were treated with DCFDA solution (10 μM, in DMSO) in dark at room temperature for 5 min. The distribution of DCFDA stained HeLa cells was determined by flow cytometry in the FL-1 channel.

The subject of data set [8] is HeLa cells. To be noted: curcumin, cited from earlier work.
For data set [9], the system named is A549 cells. To be noted: curcumin, cited from earlier work.
The mark [10] stands for this setting: 4 h treatment followed by 20 h incubation in dark, read-out: IC50 HeLa Dark.
[11] abbreviates: 4 h treatment in dark, visible light (400–700 nm, 10 J cm^−2) 1 h, then 19 h in dark, read-out: IC50 HeLa Light.
Where [12] appears, read: 4 h treatment followed by 20 h incubation in dark, read-out: IC50 A549 Dark.
Setting [13] is: 4 h treatment in dark, visible light (400–700 nm, 10 J cm^−2) 1 h, then 19 h in dark, read-out: IC50 A549 Light.
[14] abbreviates: visible light (400–700 nm, 10 J cm^−2).

One may read the IC50 as the concentration at which inhibition is half-maximal. With `COc1cc(/C=C/C(=O)C=C([O-])/C=C/c2ccc(O)c(OC)c2)ccc1O.[Cu+2].[O-][Cl+3]([O-])([O-])[O-].c1cnc2c(c1)ccc1cccnc12` [Complex 1, [Cu(Cur)(phen)(ClO4)]], the IC50 with HeLa cells [1] (setting [10]) is 56.4 ± 3.5 µM; in the data set on HeLa cells [1] (setting [11]) it was 6.8 ± 0.9 µM; in the data set with A549 cells [2] (setting [12]), 85.3 ± 5.4 µM; in the data set with A549 cells [2] (setting [13]) it was 8.6 ± 0.8 µM. The “PI (Phototoxic Index) HeLa” value in the data set with HeLa cells [1] was 8.3. The “PI (Phototoxic Index) A549” value with A549 cells [2] is reported as 9.9. For the same compound, the “log Po/w” value in data set [3] was −0.525. Moreover, the “induction of apoptosis (in words)” value in the data set with HeLa cells [4] (visible light (400–700 nm, 10 J cm^−2) vs dark) is listed as “visible light assisted induction of apoptosis in HeLa cells, however not up to the extent of 3”.
As to `COc1cc(C=CC(=O)C=C([O-])C=Cc2ccc(O)c(OC)c2)ccc1O.[Cu+2].[O-][Cl+3]([O-])([O-])[O-].c1cnc2c(c1)c1nccnc1c1cccnc12` [Complex 2, [Cu(Cur)(dpq)(ClO4)]], the IC50 was 61.9 ± 3.9 µM in the data set with HeLa cells [1] (setting [10]), 4.7 ± 0.8 µM in the data set on HeLa cells [1] (setting [11]), 65.6 ± 4.4 µM in the data set with A549 cells [2] (setting [12]) and 5.7 ± 0.7 µM with A549 cells [2] (setting [13]). Besides, in the data set on HeLa cells [1], the “PI (Phototoxic Index) HeLa” value stood at 13.2. For the same compound, the “PI (Phototoxic Index) A549” value with A549 cells [2] is reported as 11.5. Besides, the “log Po/w” value in data set [3] was 0.345.
For the compound `COc1cc(/C=C/C(=O)C=C([O-])/C=C/c2ccc(O)c(OC)c2)ccc1O.[Cu+2].[O-][Cl+3]([O-])([O-])[O-].c1ccc2nc3c4cccnc4c4ncccc4c3nc2c1` [Complex 3, [Cu(Cur)(dppz)(ClO4)]], the IC50 in the data set with HeLa cells [1] (setting [10]) turned out to be 58.9 ± 3.7 µM; in the data set on HeLa cells [1] (setting [11]) it was 3.7 ± 0.5 µM; in the data set on A549 cells [2] (setting [12]) it was 64.9 ± 4.3 µM; in the data set on A549 cells [2] (setting [13]), 4.3 ± 0.4 µM. For the same compound, in the data set with HeLa cells [1], the “PI (Phototoxic Index) HeLa” value was 15.9. Also, the “PI (Phototoxic Index) A549” value in the data set on A549 cells [2] is given as 15.1. Further, the “log Po/w” value in data set [3] was 0.945. Also, in data set [5], the “HSA fluorescence quenching mechanism” value is “static in nature”. The “population of cells in early apoptotic stage” value was roughly 4% in the data set with HeLa cells [4] (in dark) and roughly 50% in the data set on HeLa cells [4] (setting [14]). For the same compound, the “population of cells in late apoptotic stage” value with HeLa cells [4] (in dark) was roughly 8%; with HeLa cells [4] (setting [14]) it was roughly 15%. Moreover, the “uptake in HeLa cells” value with HeLa cells [6] is reported as “highest uptake”. Also, the “ROS generation (DCF emission)” value in the data set on HeLa cells [7] (4 h, photo-irradiation (400–700 nm) 1 h) is listed as “significant increase in emission by DCF”; with HeLa cells [7] (compound treated cells kept in dark), “did not show any significant ROS formation”.
Consider `CC(=O)C=C(C)[O-].[Cu+2].[O-][Cl+3]([O-])([O-])[O-].c1cnc2c(c1)ccc1cccnc12` [Complex 4, [Cu(acac)(phen)(ClO4)]], for which the IC50 is greater than 100 µM in the data set with HeLa cells [1] (setting [10]), 41 ± 3.8 µM with HeLa cells [1] (setting [11]), greater than 100 µM in the data set with A549 cells [2] (setting [12]) and 48.8 ± 4.2 µM in the data set on A549 cells [2] (setting [13]).
For the compound `CC(=O)C=C(C)[O-].[Cu+2].[O-][Cl+3]([O-])([O-])[O-].c1cnc2c(c1)c1nccnc1c1cccnc12` [Complex 5, [Cu(acac)(dpq)(ClO4)]], the IC50 with HeLa cells [1] (setting [10]) was greater than 100 µM; in the data set on HeLa cells [1] (setting [11]) it was 46.8 ± 3.9 µM; with A549 cells [2] (setting [12]), greater than 100 µM; in the data set with A549 cells [2] (setting [13]) it was 45.1 ± 3.5 µM. For the same compound, in the data set on HeLa cells [1], the “PI (Phototoxic Index) HeLa” value is reported as greater than 2.1. In addition, the “PI (Phototoxic Index) A549” value in the data set with A549 cells [2] was greater than 2.2. In addition, the “log Po/w” value in data set [3] is −0.180.
Consider `CC(=O)C=C(C)[O-].[Cu+2].[O-][Cl+3]([O-])([O-])[O-].c1ccc2nc3c4cccnc4c4ncccc4c3nc2c1` [Complex 6], for which the IC50 with HeLa cells [1] (setting [10]) is greater than 100 µM; in the data set with HeLa cells [1] (setting [11]), 36.9 ± 2.8 µM; with A549 cells [2] (setting [12]) it was greater than 100 µM; with A549 cells [2] (setting [13]), 39.8 ± 3.3 µM. Moreover, the “PI (Phototoxic Index) HeLa” value in the data set on HeLa cells [1] was greater than 2.7. The “PI (Phototoxic Index) A549” value with A549 cells [2] is greater than 2.5.
As to `COc1cc(/C=C/C(=O)CC(=O)/C=C/c2ccc(O)c(OC)c2)ccc1O` [Curcumin, (1E,6E)-1,7-bis(4-hydroxy-3-methoxyphenyl)-1,6-heptadiene-3,5-dione], the concentration for half-maximal inhibition (IC50) in the data set on HeLa cells [8] (read-out: IC50 HeLa Dark) is 85.4 ± 0.6 µM; in the data set with HeLa cells [8] (read-out: IC50 HeLa Light), 8.2 ± 0.2 µM; in the data set on A549 cells [9] (read-out: IC50 A549 Dark), 61.4 ± 0.4 µM; in the data set on A549 cells [9] (read-out: IC50 A549 Light) it was 19 ± 0.1 µM.
